Tests used:
[1] = system: tau (Tau5, phospho S199, T231) in BiFC-tau Venus HEK293 cells; assay: Immunoblot of total tau and phospho-tau in HEK293 BiFC-tau cells; format: cell-based, human
Procedure: Cells were collected and lysed in modified radioimmunoprecipitation assay(RIPA) buffer 50 mM Tris-HCl, pH 7.8, […], 1% NP-40, 0.5% deoxycholate, 5 mM NaF, 2 mM Na3VO4, and 1× Protease Inhibitor Cocktail(Roche). The concentration of total protein in each lysate was then determined using a whole cell assay and Pierce BCA Protein Assay Kit (ThermoFisher Scientific). Centrifugation was performed at 200 g for 10 minutes at 4° C. for measurement. Equal amounts of each lysate were fractionated by PAGE, transferred to a PVDF membrane (Bio-Rad), and blocked with 2% bovine serum albumin (BSA, MP Biomedicals) in Tris Buffered Saline supplemented with Tween20 (TBST, Sigma) for 1 hour at room temperature.
Membranes were probed with protein-specific antibodies overnight at 4° C. The following day, membranes were washed three times in TBST and incubated with 2% BSA in TBST for 1 hour at room temperature with anti-rabbit or anti-mouse horseradish peroxidase secondary antibodies (Cell Signaling Technology). After washing, membranes were exposed to detection reagents (GE Healthcare) and quantified via chemiluminescence (Bio-Rad). […]

tau P301L = assay: Level of aggregation-prone mutant protein after treatment; format: cell-based; conditions: SB1617 treatment
Source text: (§1) Plasmids pRK5-EGFP-Tau (#46904) and pRK-EGFP-Tau P301 L (#46908) were purchased from Addgene. Plasmids pCMV-SOD1-EGFP and pCMV-SOD1 G93A-EGFP were provided by Seoul National University College of Medicine. Plasmids were transfected in HEK293T cells using Lipofectamine and Opti-MEM (Gibco) based on the manufacturer's instructions. Short interfering RNA duplex (siRNA duplex, BIONEER) for PDIA3 and DNAJC3 was used for PDIA3 and DNAJC3 knockdown experiments. siRNA oligonucleotides were transfected in HEK293 cells stably expressing BiFC-tau using Lipofectamine RNAiMAX (ThermoFisher Scientific) and Opti-MEM (Gibco) based on the manufacturer's instructions.
(§2) 5-6. From the results of Test Examples 5-1 to 5-5, it was hypothesized that if SB1617, a pyrimidiazepine derivative from this invention, regulates protein homeostasis, it will be able to effectively control the level of other proteins that tend to be folded and accumulated incorrectly under ER stress conditions. To confirm this, changes in the level of other aggregation-oriented proteins according to SB1617 treatment were confirmed.
(§3) Tau P301 L is found in FTD patients with Parkinson's disease and is known to accelerate tau aggregation and accumulation in the mouse brain. Htt-Q74 refers to a polyglutamine dilated mutation that causes Huntington's disease. The SOD1 (G93A) mutation level is one of the clinical characteristics of ALS patients.

SOD1 (G93A) = assay: as above; format: cell-based; conditions: SB1617 treatment
Source text: as §1, §2, §3

Htt-Q74 = assay: as above; format: cell-based; conditions: SB1617 treatment

With `CN(Cc1ccc(Cl)cc1)c1ncnc2c1[C@@H]1OC[C@H](CN2)N1S(=O)(=O)c1ccc([N+](=O)[O-])cc1` [Compound 117] the total tau level ([1]; 10 μM SB1617, 200 nM TG, pre-treated with 20 μg/mL cycloheximide, 8 hours) was “did not cause a significant change in tau level”, the “effect on reduction of total tau level” value ([1]; SB1617 and TG with autophagy inhibitors 3-methyladenine and bafilomycin A1) was “is reduced, but does not completely diminish” and the “total tau (Tau5) and phospho-tau (S199, T231) levels” value ([1]; with 80 nM thapsigargin for 20 hours) was “decreased all tau levels”. For the same molecule, the “mutation level of tau P301L” value (tau P301L) was “downregulated”, the “mutation level of SOD (G93A)” value (SOD1 (G93A)) was “downregulated” and the “mutation level of Htt-Q74” value (Htt-Q74) was “downregulated”.

Reference: patent US20230322805A1, “NOVEL PYRIMIDODIAZEPINE DERIVATIVES OR USES THEREOF” (SPARK BIOPHARMA, INC., priority 2020, published 2023)
